Assay results published in patent US11850277B2, “Treatment of lower urinary tract epithelium with glucagon like peptide 2” (URIGEN N.A., priority 2017, dated 2023).

Tests used:
[1] = tested on: non-tumorigenic primary human bladder epithelial cells (ATCC-PCS-420-010); test: BrdU cell proliferation assay (BrdU incorporation into DNA); assay type: cell-based; conditions: cells starved 48 hours in low nutrient (0.5%) medium; for DNA synthesis as measured by BrdU incorporation: BrdU added concurrently
Description: FIG. 1 presents a histogram plot depicting results from a BrdU cell proliferation assay. Primary human bladder epithelial cells were nutrient starved as indicated and treated with GLP-2 for 24 hours at the indicated concentrations
FIG. 2 presents a histogram plot depicting results from a BrdU cell proliferation assay. Primary human bladder epithelial cells were nutrient starved as indicated and treated with GLP-2 for 48 hours at the indicated concentrations.
URG-801/GLP-2 mediated cell proliferation was detected by assaying BrdU incorporation into DNA using non-tumorigenic primary human bladder epithelial cells. An exemplary non-tumorigenic primary human bladder epithelial cell line is ATCC-PCS-420-010, which may be purchased from the American Type Culture Collection (ATCC) repository. Briefly, ATCC-PCS-420-010 cells were starved for 48 hours in low nutrient (0.5%) medium and then GLP-2 was added to the culture medium at the indicated concentrations and the cells were cultured for an additional 24 hours in the presence of GLP-2. As indicated in the timeline presented in FIG. 1, bromodeoxyuridine (BrdU) was added concurrently with the GLP-2.
To investigate further parameters affecting GLP-2 induced bladder epithelial cell proliferation, the duration of culturing in the presence of GLP-2 was extended. In this experimental protocol, ATCC-PCS-420-010 cells were starved for 48 hours in low nutrient (0.5%) medium and then GLP-2 was added to the culture medium at the indicated concentrations and the cells were cultured for ab additional 48 hours in the presence of GLP-2. As indicated in the timeline presented in FIG. 2, BrdU was added concurrently with the GLP-2.

[2] = target: T1, GLP-2R (Rattus norvegicus, UniProt Q9Z0W0); conditions: iv injected radiolabeled GLP-2, autoradiography; cited from earlier work
T1 construct: host or cells: Tissues of the living animal (kidneys, liver, gastrointestinal tract and others), endogenous receptor
T1 sequence (Q9Z0W0 1-550): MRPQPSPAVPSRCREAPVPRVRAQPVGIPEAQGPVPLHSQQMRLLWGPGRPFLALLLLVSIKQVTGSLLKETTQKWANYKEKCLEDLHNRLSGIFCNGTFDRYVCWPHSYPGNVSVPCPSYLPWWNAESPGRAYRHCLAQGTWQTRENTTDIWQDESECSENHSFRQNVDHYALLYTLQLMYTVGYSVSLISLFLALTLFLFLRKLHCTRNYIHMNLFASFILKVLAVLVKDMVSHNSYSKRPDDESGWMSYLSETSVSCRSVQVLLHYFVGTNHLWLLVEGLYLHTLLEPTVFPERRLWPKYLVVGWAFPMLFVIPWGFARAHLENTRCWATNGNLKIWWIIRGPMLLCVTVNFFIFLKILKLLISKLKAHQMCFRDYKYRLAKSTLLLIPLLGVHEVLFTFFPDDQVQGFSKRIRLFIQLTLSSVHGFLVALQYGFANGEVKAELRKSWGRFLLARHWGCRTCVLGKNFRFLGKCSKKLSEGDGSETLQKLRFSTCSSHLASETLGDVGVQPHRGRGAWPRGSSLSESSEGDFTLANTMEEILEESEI

[3] = tested on: intestinal epithelium; conditions: normal and treated rat inflammatory bowel disease models and ischemic reperfusion injured mice; cited from earlier work
[4] = in vivo; cited from earlier work
[5] = phase IIB study; cited from earlier work
[6] = then cultured 48 hours with GLP-2, FIG. 2

Substance	DNA synthesis as measured by BrdU incorporation ([1]; then cultured 24 hours with GLP-2, FIG. 1)	DNA synthesis as measured by BrdU incorporation [1, 6]	GLP-2 concentration at which BrdU incorporation peaked (bell shaped curve) [1, 6]	binding to submandibular gland, lung, brain, heart, adipose tissue, skeletal muscle, uterus, ovary, urinary bladder, adrenal gland, thyroid gland, or skin [2]	tissues to which radiolabeled GLP-2 binds [2]	effect on intestinal/mucosal mass and damage [3]	half life in circulation [4]	efficacy in chemotherapy-induced diarrhea [5]
HADGSFSDEMNTILDNLAARDFINWLIQTKITD [GLP-2]	dose dependent increase in DNA synthesis	dose dependent increase in DNA synthesis	0.1 µM	does not bind	binds predominantly to the kidneys, liver, and gastrointestinal tract	enhanced intestinal/mucosal mass and attenuated damage	3 to 7 min	
elsiglutide								failed to reach statistical significance
